The subject of test [1] is P. aeruginosa ATCC 15692. Briefly: Killing of exogenous P. aeruginosa in pooled CF sputum. Type of test: cell-based, Pseudomonas aeruginosa. Particulars: 1 mM. Here is the method:
3.2 Activity and stability of G10KHc and G10KHc-D in sputum. Determination of peptide antimicrobial effects or activity in sputum was investigated in a similar manner to previous reports (Sajjan et al., 2001). To assay the activity of G10KHc and G10KHc-D against exogenous P. aeruginosa in sputum, collected sputum samples were diluted 1:10 in 10 mM PBS (PBS) and pooled (referred to as pooled sputum). In 100 μL pooled sputum, ATCC 15692 was added to a final concentration of ˜5×10^6 cfu/mL prior to 25 μM peptide addition.
In samples examining the effect of protease inhibitors on peptide activity, pooled sputum samples were pre-treated for 30 min with 1 mM protease inhibitor, either phenylmethylsulphonylfluoride (PMSF), beta-mercaptoethanol (BME), or ethylenediaminetetraacetic acid (EDTA), (all acquired from Sigma-Aldrich), followed by addition of 25 μM G10KHc and ATCC 15692 (˜5×10^6 cfu/mL).
Bacteria surviving peptide treatment were rescued by dilution (1:50) in growth media at 4 h and kept on ice before appropriate dilution and plating on LB agar supplemented with ampicillin (25 μg/mL). After overnight incubation at 37° C., colonies were counted and the surviving cfu/mL quantitated. 100 cfu/mL was considered as the countable limit for all plating procedures. […]

The test system of test [2] is S. mutans JM11 mixed with S. mitis, S. sobrinus, S. gordonii, S. sanguinis. The experiment in a line: Selectivity against multi-species biofilms of oral streptococci. Type of test: cell-based. Here is the method:
Selectivity of STAMPs against multi-species biofilms of oral streptococci. To measure selectivity of STAMPs, mixed biofilms were seeded to 48-well plates. Streptococcus mitis, S. sobrinus, S. gordonii, and S. sanguinis were mixed with S. mutans strain JM11 (spectinomycin resistant) at a 1:1:1:1:10 ratio, total of 10^5 cells/well. Biofilms were grown overnight in TH medium with 1% sucrose, 1% dextrose, and 1% mannose, for 18-24 h. Mature biofilms were treated with PBS plus STAMP as described for the single-species biofilm assay, with the same controls. After treatment, biofilms were washed 2× in PBS and then physically disrupted with a sterile pipette tip in 100 μL PBS per well. Cell suspensions were then serially diluted 10-fold to 10^-6. Diluted suspensions were then plated on TH medium and TH supplemented with spectinomycin, 800 μg/mL. The total amount of biofilm killing (all streptococci) was determined by counting colonies from TH-only plates. Controls: 100% of untreated corresponds to the number of cfu/mL recorded from untreated biofilms, 0% survival was obtained from ethanol sterilized samples. S. mutans killing was determined from quantitating colonies on TH-spectinomycin plates, and combined total cfu/mL, was utilized to calculate the ratio of S. mutans:total population. 1:1 ratio indicates no selectivity.

Another test has as its system S. mutans. Format: cell-based, Streptococcus mutans. Here is the method:
(§1) 1.3 Determination of antimicrobial activity. The general antimicrobial activity of peptides against planktonic bacteria was determined by a MIC assay in TH broth (all oral streptococci) (Qi et al., 2005).
(§2) S. mutans, S. gordonii Challis (DL1), and S. sanguinis NY101 strains were grown in Todd Hewitt (TH, Fisher) broth medium at 37° C. under anaerobic conditions (80% N2, 10% CO2, and 10% H2). S. mutans strains UA159 (Ajdic et al., 2002), ATCC 25175, and T8 (Rogers, 1975), are wild-type clinical isolates, while comD is a knockout mutant that was constructed previously from the wild-type UA140 background (Qi et al., 2005). Luciferase expressing S. mutans strain JM11 was constructed from UA140 as described (Merritt et al., 2005). Exponentially growing bacterial cells were diluted to ˜1×10^5 cfu/mL in TH and placed into 96-well plates (Fisher). Peptides were then serially diluted and added to the bacteria.

In the next test the test system is S. gordonii. Format: cell-based, S. gordonii Challis (DL1). Here is the method:
as §1, §2

Another test has as its system other oral streptococci. Briefly: Binding of fluorescently labeled peptides to other oral streptococci. Particulars: fluorescently labeled peptide. An excerpt:
(§3) 1.2 Fluorescent labeling of peptides and fluorescence microscopy. Aliquots of CSPC16 (SEQ ID NO 2), CSP-fragment peptides (Table 2), and C16G2 (SEQ ID NO 4) were labeled with carboxyfluorescein (Sigma) as described previously (Eckert et al., 2006). After peptide cleavage but prior to the bacterial labeling assay, fluorescence intensity per μM peptide was checked fluorimetrically (λex=488 nm, λem=520 nm VersaFluor, BioRad) and found to be relatively similar (data not shown). To evaluate the level of peptide binding to bacteria, streptococci from an overnight culture (OD600 of 0.7-1.0) were washed with phosphate buffered saline (1×PBS), diluted 1:2 into 1×PBS, and exposed to peptide (16 μM) for 5 min at 25° C. After incubation with peptide, unbound agent was removed from the bacteria by three cycles of centrifugation (5 min, 16,000×g) and resuspension in 1×PBS. Labeling of oral streptococci was evaluated using brightfield and fluorescence microscopy (Nikon E400) at a 40× magnification. The digital images utilized for the semi-quantitative binding assessment were acquired with the factory-supplied software (SPOT, Diagnostics).

For another test, the system named is S. sanguinis. Type of test: cell-based, S. sanguinis NY101. Here is the method: as §1, §2
A further test has as its system S. gordonii biofilms. Briefly: Single-species biofilm regrowth after peptide exposure, S. gordonii. Particulars: 25 μM peptide, 1 min exposure. Format: cell-based. Here is the method: (§4) 1.5 Examination of antimicrobial activity against single-species biofilms. To initiate biofilm formation, ˜1×10^7 bacteria per well (from overnight cultures) were seeded in TH medium (100 μL) to a 96-well flat-bottom plate. For all streptococci except S. mutans, the medium was supplemented with 0.5% (w/v) mannose and glucose. S. mutans UA159 biofilms were grown with 0.5% (w/v) sucrose. Plates were then centrifuged briefly to pellet the cells, and bacteria were incubated for 3-4 hours at 37° C. for biofilm formation. After incubation, the supernatant was carefully removed and biofilms were treated with 25 μM peptide in 1×PBS or 1×PBS alone for 1 min. The peptide solution was then removed and 100 μL TH was added to further dilute any remaining peptide. To minimize biofilm loss, cells were briefly centrifuged after TH addition, after which the supernatants were removed and fresh medium plus appropriate sugars were returned. Cells were then incubated anaerobically at 37° C. and biofilm growth was monitored over time by measuring absorbance at OD600 with a microplate spectrophotometer (Benchmark Plus, BioRad).

Another test relates to S. sanguinis biofilms. Briefly: Single-species biofilm regrowth after peptide exposure, S. sanguinis. Particulars: 25 μM peptide, 1 min exposure. Type of test: cell-based. Here is the method:
as §4

For a further test, the system named is S. mutans UA159 and comD. Briefly: Binding of fluorescently labeled peptides to S. mutans (fluorescence microscopy). Details: species or system Streptococcus mutans. Particulars: fluorescently labeled peptide.
Description: To determine whether there was a region within the CSPC16 sequence that was responsible for S. mutans-specific binding, we synthesized a series of fluorescently labeled CSPC16 fragments, and analyzed their ability to bind to S. mutans. The following strategies were utilized in dissecting the CSPC16 sequence (Table 2): First, a series of fragments were constructed by generating deletions of 3 or 4 amino acids, from the N to C terminus, across the CSPC16 sequence (C16-1 to C16-5). Peptides lacking larger portions of the C or N termini of CSPC16 were also synthesized (C16-6 to C16-12). Additionally, peptides with Arg to […] (a positive to negative change in charge) (C16-4) or Phe to Gly substitutions (for a general decrease in hydrophobicity) (C16-3), as well as peptides representing a 4-residue Ala scan of the C16 sequence were constructed (C 16-15 to C16-18). […] These peptides include C16 (SEQ ID NO 1), C16-3 (SEQ ID NO 39), C16-4 (SEQ ID NO 40), C16-5 (SEQ ID NO 41), C16-6 (SEQ ID NO 42), C16-11 (SEQ ID NO 47), C16-12 (SEQ ID NO 5), C16-16 (SEQ ID NO 51), C16-17 (SEQ ID NO 52), and C16-18 (SEQ ID NO 53).
as §3

The next test concerns S. mutans biofilms. Briefly: Single-species biofilm regrowth after peptide exposure, S. mutans. Type of test: cell-based, Streptococcus mutans. Particulars: 25 μM peptide, 1 min exposure. Here is the method:
as §4

Test [3] has as its system P. aeruginosa ATCC 15692. The experiment in a line: Effect of rhDNase on STAMP killing in concentrated sputum. Type of test: cell-based, Pseudomonas aeruginosa. Particulars: 100 μg/mL rhDNase. Here is the method: 3.4 Effect of rhDNase on STAMP activity in sputum. Recombinant human DNase, which is commonly used during treatment of CF to reduce sputum viscosity and promote airway clearing (Fuchs et al., 1994), was added to pooled, concentrated sputum samples to determine if G10KHc/PMSF and G10KHc-D activity could be improved during co-treatment under these conditions. To determine the effect of rhDNase (Genentech, San Francisco, Calif.) on STAMP killing ability, individual sputum samples were diluted 1:2 in 100 μg/mL rhDNase, briefly vortexed, and incubated at room temperature for 10 min. Treated samples were then pooled, followed by 1 mM PMSF addition, where appropriate, and incubation for 1 h. 25 μM G10KHc or G10KHc-D was then added with ˜5×10^6 cfu/mL ATCC 15692 and incubated 4 h. Survivors were then rescued and quantitated by plating as described above.

One may read the MIC as the lowest concentration found to suppress growth. Higher therefore signals weaker potency.

Entries after “also recorded” stand apart in the source; their conditions may differ. Like-named read-outs stand apart in the source and are kept apart here. No end group written: not given here.

`O=S(=O)(F)Cc1ccccc1` [PMSF, phenylmethylsulphonylfluoride, reference compound]: the “effect of inhibitor alone on P. aeruginosa viability” value in the test with P. aeruginosa ATCC 15692 [1] was “only a small affect on P. aeruginosa viability”.
Take “NIFEYFLEGGGKLFKFLRKHLL (synthetic selectively/specifically targeted antimicrobial peptide (STAMP) chimeric polypeptide 1903-BD2.21)”: in test [2] (multi-species biofilm, 20 min), the “impact on total cfu/mL population / other oral streptococci (in words)” value is reported as “some impact on other oral streptococci” and the “reduction of total population” value is given as “about 30%”.
Consider TFFRLFNR-OH [CSPM8, TFFRLFNR], for which the MIC against S. mutans (S. mutans 25175), in the test on S. mutans (S. mutans T8), in the test with S. mutans (S. mutans UA159), in the test with S. mutans (S. mutans comD), in the test on S. gordonii and with S. sanguinis was greater than 60 µM in each case. Besides, in the test on other oral streptococci, the “binding to other oral streptococci” value is reported as “little or no binding”.
Consider “TFFRLFNRSFTQALGK-OH [CSPC16, TFFRLFNRSFTQALGK]”, for which the “biofilm re-growth after treatment (OD600)” value in the test on S. gordonii biofilms is listed as “grew similarly to untreated biofilms”; in the test on S. sanguinis biofilms it was “grew similarly to untreated biofilms”; in the test with S. mutans biofilms it was “unaffected”. Besides, the “binding to S. mutans (in words)” value in the test on S. mutans UA159 and comD was “detected as bound; also recorded: could specifically bind to S. mutans”. Moreover, the MIC with S. mutans (S. mutans 25175), in the test with S. mutans (S. mutans T8), with S. mutans (S. mutans UA159), in the test on S. mutans (S. mutans comD), against S. gordonii and in the test on S. sanguinis was greater than 60 µM each time. In addition, the “binding to other oral streptococci” value in the test on other oral streptococci is recorded as “not to other oral streptococci”.
Regarding “TFFRLFNRSFTQALGKGGGKLFKFLRKHLL (synthetic selectively/specifically targeted antimicrobial peptide (STAMP) chimeric polypeptide C16-BD2.21)”, the “ratio of surviving S. mutans to total Streptococci” value in test [2] (1:1 ratio indicates no selectivity) amounted to 0.075. For the same molecule, in test [2] (multi-species biofilm, 20 min), the “impact on total cfu/mL population / other oral streptococci (in words)” value is “no impact on the total cfu/mL population”.

B1: rhDNase: Recombinant human DNase (Genentech), sputum mucolytic agent (protein, UniProt P24855 23-282, looked up)
Deoxyribonuclease-1: LKIAAFNIQTFGETKMSNATLVSYIVQILSRYDIALVQEVRDSHLTAVGKLLDNLNQDAPDTYHYVVSEPLGRNSYKERYLFVYRPDQVSAVDSYYYDDGCEPCGNDTFNREPAIVRFFSRFTEVREFAIVPLHAAPGDAVAEIDALYDVYLDVQEKWGLEDVMLMGDFNAGCSYVRPSQWSSIRLWTSPTFQWLIPDSADTTATPTHCAYDRIVVAGMLLRGAVVPDSALPFNFQAAYGLSDQLAQAISDHYPVEVMLK
As to B1, the “effect of rhDNase treatment alone on P. aeruginosa” value with P. aeruginosa ATCC 15692 [3] is on record as “not affected”.

For the origin of these results see US8680058B2, “Selectively targeted antimicrobial peptides and the use thereof” (priority 2006, dated 2014).
